Reference: ChEMBL document CHEMBL1201862, “PubChem BioAssay data set” (2004)
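Step 1: Grow cells in 96-well plates. Step 2: Expose to compound for 48 hours at 5 concentrations. Step 3: Interpolate endpoints linearly; if unreached, use highest concentration. GI50 marks 50% less growth.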 Activity calls are given as the source filed them. Cut-off read from the data, not from the text of the source: active = GI50 up to about 1.1 µM and inactive = higher.

Experiments:
Assay in all cases: DTP human tumour cell line panel, 48 h
TK-10 = test system: TK-10
U-251 = test system: U-251
SF-295 = test system: SF-295
SF-539 = test system: SF-539
CCRF-CEM = test system: CCRF-CEM
UACC-257 = test system: UACC-257
HCT-116 = test system: HCT-116
HCC 2998 = test system: HCC 2998
SN12C = test system: SN12C
UO-31 = test system: UO-31
Hs-578T = test system: Hs-578T
MDA-MB-231 = test system: MDA-MB-231
SNB-75 = test system: SNB-75
A498 = test system: A498
NCI-H460 = test system: NCI-H460
MCF7 = test system: MCF7
NCI-H522 = test system: NCI-H522
RPMI-8226 = test system: RPMI-8226
EKVX = test system: EKVX

For CCc1c[n+]2c(cc1C1=CN3c4ccccc4[C@]45CCN6C/C(=C/CO)[C@H](C[C@H]64)[C@@H]([C@@H]1O)[C@H]35)-c1[nH]c3ccccc3c1CC2, the GI50 (TK-10) was > 50 µM (inactive), the GI50 (U-251) was > 50 µM (inactive) and the GI50 (SF-295) was > 50 µM (inactive). The GI50 (SF-539) was > 50 µM (inactive), the GI50 (CCRF-CEM) was > 50 µM (inactive) and the GI50 (UACC-257) was > 50 µM (inactive). The GI50 (HCT-116) was > 50 µM (inactive), the GI50 (HCC 2998) was > 50 µM (inactive) and the GI50 (SN12C) was > 50 µM (inactive). For the same compound, the GI50 (UO-31) was > 50 µM (inactive), the GI50 (Hs-578T) was > 50 µM (inactive) and the GI50 (MDA-MB-231) was > 50 µM (inactive). For the same compound, the GI50 (SNB-75) was > 50 µM (inactive), the GI50 (A498) was > 50 µM (inactive) and the GI50 (NCI-H460) was > 50 µM (inactive). For the same compound, the GI50 (MCF7) was > 50 µM (inactive), the GI50 (NCI-H522) was > 50 µM (inactive) and the GI50 (RPMI-8226) was > 50 µM (inactive). For the same compound, the GI50 (EKVX) was > 50 µM (inactive).

With CCOC(=O)NC(Nc1c(F)c(F)c(F)c(F)c1F)(C(F)(F)F)C(F)(F)F the GI50 (TK-10) was > 100 µM (inactive), the GI50 (U-251) was > 100 µM (inactive) and the GI50 (SF-295) was > 100 µM (inactive). For the same compound, the GI50 (SF-539) was > 100 µM (inactive), the GI50 (CCRF-CEM) was > 100 µM (inactive) and the GI50 (UACC-257) was > 100 µM (inactive). For the same compound, the GI50 (HCT-116) was > 100 µM (inactive), the GI50 (HCC 2998) was > 100 µM (inactive) and the GI50 (SN12C) was > 100 µM (inactive). The GI50 (UO-31) was > 100 µM (inactive), the GI50 (Hs-578T) was > 100 µM (inactive) and the GI50 (MDA-MB-231) was > 100 µM (inactive). For the same compound, the GI50 (SNB-75) was > 100 µM (inactive), the GI50 (A498) was > 100 µM (inactive) and the GI50 (NCI-H460) was > 100 µM (inactive). The GI50 (MCF7) was > 100 µM (inactive), the GI50 (NCI-H522) was > 100 µM (inactive) and the GI50 (RPMI-8226) was > 100 µM (inactive). For the same compound, the GI50 (EKVX) was > 100 µM (inactive).

CCOC(CBr)OC1C(=O)OCC1(C)C (centres undefined) was tested, and the GI50 (TK-10) was > 100 µM (inactive), the GI50 (U-251) was > 100 µM (inactive) and the GI50 (SF-295) was > 100 µM (inactive). For the same compound, the GI50 (CCRF-CEM) was > 100 µM (inactive), the GI50 (UACC-257) was > 100 µM (inactive) and the GI50 (HCT-116) was > 100 µM (inactive). The GI50 (HCC 2998) was > 100 µM (inactive), the GI50 (SN12C) was > 100 µM (inactive) and the GI50 (UO-31) was > 100 µM (inactive). The GI50 (Hs-578T) was > 100 µM (inactive), the GI50 (MDA-MB-231) was > 100 µM (inactive) and the GI50 (SNB-75) was > 100 µM (inactive). The GI50 (A498) was > 100 µM (inactive), the GI50 (NCI-H460) was > 100 µM (inactive) and the GI50 (MCF7) was > 100 µM (inactive). For the same compound, the GI50 (NCI-H522) was > 100 µM (inactive), the GI50 (RPMI-8226) was > 100 µM (inactive) and the GI50 (EKVX) was > 100 µM (inactive).

With Oc1ccc[n+](Cc2ccccc2)c1 the GI50 (TK-10) was > 100 µM (inactive), the GI50 (U-251) was > 100 µM (inactive) and the GI50 (SF-295) was > 100 µM (inactive). The GI50 (SF-539) was > 100 µM (inactive), the GI50 (CCRF-CEM) was > 100 µM (inactive) and the GI50 (UACC-257) was > 100 µM (inactive). For the same compound, the GI50 (HCT-116) was > 100 µM (inactive), the GI50 (HCC 2998) was > 100 µM (inactive) and the GI50 (SN12C) was > 100 µM (inactive). The GI50 (UO-31) was > 100 µM (inactive), the GI50 (Hs-578T) was > 100 µM (inactive) and the GI50 (MDA-MB-231) was > 100 µM (inactive). For the same compound, the GI50 (SNB-75) was > 100 µM (inactive), the GI50 (A498) was > 100 µM (inactive) and the GI50 (NCI-H460) was > 100 µM (inactive). For the same compound, the GI50 (MCF7) was > 100 µM (inactive), the GI50 (NCI-H522) was > 100 µM (inactive) and the GI50 (RPMI-8226) was > 100 µM (inactive).

With O=C(CCc1ccc(O)c(O)c1)NCCc1cc(O)cc(OCc2ccccc2)c1 the GI50 (TK-10) was > 100 µM (inactive), the GI50 (U-251) was 26.6 µM (inactive) and the GI50 (SF-295) was 46.7 µM (inactive). For the same compound, the GI50 (SF-539) was 27.2 µM (inactive), the GI50 (CCRF-CEM) was 6.87 µM (inactive) and the GI50 (UACC-257) was > 100 µM (inactive). For the same compound, the GI50 (HCT-116) was 33.5 µM (inactive), the GI50 (HCC 2998) was 17.1 µM (inactive) and the GI50 (SN12C) was 24.9 µM (inactive). The GI50 (UO-31) was 4.69 µM (inactive), the GI50 (Hs-578T) was 45.9 µM (inactive) and the GI50 (MDA-MB-231) was 27.2 µM (inactive). For the same compound, the GI50 (SNB-75) was 15.6 µM (inactive), the GI50 (A498) was > 100 µM (inactive) and the GI50 (NCI-H460) was 22.2 µM (inactive). The GI50 (MCF7) was 26.9 µM (inactive), the GI50 (NCI-H522) was 5.14 µM (inactive) and the GI50 (RPMI-8226) was 9.04 µM (inactive). For the same compound, the GI50 (EKVX) was 53.5 µM (inactive).

In the case of CCCCOC(=O)NC(c1ccccc1)C(O)C(=O)OC1C[C@@]2(O)C(OC(=O)c3ccccc3)C3[C@](C)(C(=O)[C@H](OC(C)=O)C(=C1C)C2(C)C)[C@@H](O)C[C@H]1OC[C@@]31OC(C)=O (some centres undefined), the GI50 (TK-10) is reported as 0.101 µM (active), the GI50 (U-251) is reported as 0.00807 µM (active) and the GI50 (SF-295) is reported as 0.0159 µM (active). The GI50 (SF-539) was 0.00305 µM (active), the GI50 (CCRF-CEM) was 0.00425 µM (active) and the GI50 (HCT-116) was 0.00216 µM (active). The GI50 (HCC 2998) was 0.011 µM (active), the GI50 (SN12C) was 0.0157 µM (active) and the GI50 (UO-31) was 0.176 µM (active). The GI50 (Hs-578T) was 0.00191 µM (active), the GI50 (MDA-MB-231) was 0.034 µM (active) and the GI50 (SNB-75) was 0.0179 µM (active). The GI50 (A498) was 0.0056 µM (active), the GI50 (NCI-H460) was 0.002 µM (active) and the GI50 (MCF7) was 0.00248 µM (active). For the same compound, the GI50 (NCI-H522) was 0.00234 µM (active), the GI50 (RPMI-8226) was 0.00377 µM (active) and the GI50 (EKVX) was 0.0741 µM (active).

For N#[N+]c1cc2c(cc1Br)-c1ccccc1C2, the GI50 (TK-10) was 47.1 µM (inactive), the GI50 (U-251) was 82.2 µM (inactive) and the GI50 (SF-295) was > 100 µM (inactive). The GI50 (SF-539) was > 100 µM (inactive), the GI50 (CCRF-CEM) was 0.586 µM (active) and the GI50 (UACC-257) was 23.5 µM (inactive). The GI50 (HCT-116) was > 100 µM (inactive), the GI50 (HCC 2998) was 85.5 µM (inactive) and the GI50 (SN12C) was > 100 µM (inactive). For the same compound, the GI50 (UO-31) was > 100 µM (inactive), the GI50 (Hs-578T) was > 100 µM (inactive) and the GI50 (MDA-MB-231) was > 100 µM (inactive). For the same compound, the GI50 (SNB-75) was > 100 µM (inactive), the GI50 (A498) was > 100 µM (inactive) and the GI50 (NCI-H460) was > 100 µM (inactive). For the same compound, the GI50 (MCF7) was 45.5 µM (inactive), the GI50 (NCI-H522) was 58.2 µM (inactive) and the GI50 (EKVX) was 24.5 µM (inactive).
